Source: patent publication US12643876B2, “Deuterated hpki kinase inhibitor, and preparation method therefor and use thereof” (ZHUHAI YUFAN BIOTECHNOLOGIES CO., LTD, priority 2020, dated 2026)

Experiments:
[1] = Free base crystalline form B nitrogen purging (XRPD); format: physicochemical; details: nitrogen purging at 30° C. for 20 minutes
[2] = Solid state stability of free base crystalline form A (HPLC); format: physicochemical; details: 60° C./1 day, closed space
Protocol: Solid State Stability of Free Base Crystalline Form A
The XRPD patterns of an initial sample of the free base crystalline form A described above and the free base crystalline form A after 1 day of standing in a closed space at 60° C. are shown in FIG. 5, and the HPLC results are shown in Table 5.

[3] = Free base crystalline form B standing at room temperature (XRPD); format: physicochemical; details: closed space, 5 days
From the text: The XRPD patterns of free base crystalline form B of compound A2 before and after standing at room temperature are shown in FIG. 9.

[4] = microsome metabolite identification / stability, cynomolgus monkey liver microsomes; format: in vitro ADME; details: 37° C.
Protocol: (§1) The operation steps for microsome metabolite identification were as follows:
(§2) For the sample with T=60 min, 4 μL of the test sample working solution (1.0 mM), 316 μL of the liver microsome working solution (1.27 mg/mL) and 80 μL of the reduced coenzyme working solution were added sequentially to start the reaction; for the sample with T=0 min, 316 μL of the liver microsome working solution (1.27 mg/mL) was added, and 80 μL of the reduced coenzyme working solution was added to start the reaction, with no test sample incubation; after incubation at 37° C. for 60 min, 1200 μL of stop buffer was added to stop the enzymatic reaction; and for the sample with T=0 min, 4 μL of the test sample working solution (1.0 mM) was added. The sample plate was placed on a vortexer and vortexed at 600 rpm for 5 min. The mixture was centrifuged at 4000 rpm for 10 min, and the supernatant was removed, mixed and purged with nitrogen to dryness at room temperature. The resulting solution was re-dissolved with 300 μL of 10% acetonitrile (0.1% FA), the […] centrifuged at 4000 rpm for 15 min, and the supernatant was transferred to a detection plate for mass spectrometry. Mass spectrometry was performed using an LC/Q-Exactive plus. 7-ethoxycoumarin (10 μM) was selected as a positive control compound, using the procedure same as that of the compounds.

[5] = microsome metabolite identification / stability, beagle liver microsomes; format: in vitro ADME; details: 37° C.
Protocol: as §1, §2

[6] = microsome metabolite identification / stability, human liver microsomes; format: in vitro ADME; details: 37° C.
Protocol: as §1, §2

[7] = microsome metabolite identification / stability, rat liver microsomes; format: in vitro ADME; details: 37° C.
Protocol: as §1, §2

[8] = microsome metabolite identification / stability, mouse liver microsomes; format: in vitro ADME; details: 37° C.
Protocol: as §1, §2

Row | Structure (SMILES) | crystalline form stability (XRPD) [1] | HPLC Area (%) of peak 4 (RRT 1.06) ([2]; initial sample 0.10) | HPLC Area (%) of peak 3 (RRT 1.05) ([2]; initial sample 0.22) | HPLC Area (%) of peak 1 (RRT 0.95) ([2]; initial sample 0.42) | HPLC Area (%) of peak 2 (RRT 1.00, main peak) ([2]; initial sample 99.26) | crystalline form stability (XRPD) [3] | remaining percentage of the parent nucleus after 60 min [4] | remaining percentage of the parent nucleus after 60 min [5] | remaining percentage of the parent nucleus after 60 min [6] | remaining percentage of the parent nucleus after 60 min [7] | remaining percentage of the parent nucleus after 60 min [8]
1 | [2H]C([2H])([2H])N1CCC(n2cc(-c3cnc(N)c(OCc4cccc(C#CC(C)(C)O)c4)c3)cn2)CC1 [4-(3-(((2-amino-S-(1-(1-trideuteromethylpiperidin-4-yl)-1H-pyrazol-4-yl)pyridin-3-yl)oxy)methyl)phenyl)-2-methylbut-3-yn-2-ol] | conversion in crystalline forms | 0.09% | 0.17% | 0.41% | 99.33% | tendency of converting into the free base crystalline form A | – | – | – | – | –
2 | CN1CCC(n2cc(-c3cnc(N)c(OCc4cccc(C#CC(C)(C)O)c4)c3)cn2)CC1 [Compound A1, reference compound] | – | – | – | – | – | – | 0.36% | 0.17% | 43.84% | 2.44% | 1.13%
3 | [2H]C([2H])([2H])N1CCC(n2cc(-c3cnc(N)c(OCc4cccc(C#CC(C)(C)O)c4)c3)cn2)CC1 [Compound A2, 4-(3-(((2-amino-S-(1-(1-trideuteromethylpiperidin-4-yl)-1H-pyrazol-4-yl)pyridin-3-yl)oxy)methyl)phenyl)-2-methylbut-3-yn-2-ol] | – | – | – | – | – | – | 29.6% | 7.0% | 83.9% | 52.1% | 55.0%
4 | CN1CCC(c2ncc(-c3cnc(N)c(OCc4cccc(C#CC(C)(C)O)c4)c3)s2)CC1 [Compound B1, reference compound] | – | – | – | – | – | – | 9.11% | 0.12% | 51.82% | 11.21% | 1.24%
5 | [2H]C([2H])([2H])N1CCC(c2ncc(-c3cnc(N)c(OCc4cccc(C#CC(C)(C)O)c4)c3)s2)CC1 [Compound B2] | – | – | – | – | – | – | 23.4% | 8.9% | 70.4% | 43.9% | 42.8%
